Source: ChEMBL document CHEMBL1201862, “PubChem BioAssay data set” (2004)
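Where inhibition never reached the appropriate level, the endpoint shown equals the highest concentration tested. Otherwise, values were interpolated linearly from a five-concentration, 48-hour dose response in 96-well plates. GI50 marks 50% less growth.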 Activity calls are given as the source filed them. Cut-off read from the data, not from the text of the source: active = GI50 up to about 1.1 µM and inactive = higher.

How the values were obtained:
Assay in all cases: NCI anticancer screen, dose series, 48 h
OVCAR-4 = system: OVCAR-4
OVCAR-3 = system: OVCAR-3
SNB-78 = system: SNB-78
SF-539 = system: SF-539
LOX IMVI = system: LOX IMVI
CAKI-1 = system: CAKI-1
M14 = system: M14
NCI-H522 = system: NCI-H522
SK-MEL-28 = system: SK-MEL-28
DMS-273 = system: DMS-273
HCT-15 = system: HCT-15
KM12 = system: KM12
RXF 393 = system: RXF 393
K562 = system: K562
786-0 = system: 786-0
SK-MEL-5 = system: SK-MEL-5
SK-MEL-2 = system: SK-MEL-2
A549 = system: A549
U-251 = system: U-251
TK-10 = system: TK-10
UACC-62 = system: UACC-62
XF498 = system: XF498
SK-OV-3 = system: SK-OV-3
IGROV-1 = system: IGROV-1
RPMI-8226 = system: RPMI-8226
UACC-257 = system: UACC-257
OVCAR-5 = system: OVCAR-5
COLO 205 = system: COLO 205
SF-268 = system: SF-268
SW-620 = system: SW-620
UO-31 = system: UO-31
SNB-75 = system: SNB-75
NCI-H226 = system: NCI-H226
M19-MEL = system: M19-MEL
SN12C = system: SN12C
HOP-92 = system: HOP-92
RXF 631 = system: RXF 631
CCRF-CEM = system: CCRF-CEM
EKVX = system: EKVX
MOLT-4 = system: MOLT-4
NCI-H460 = system: NCI-H460
HL-60 = system: HL-60
LXFL 529 = system: LXFL 529
DMS-114 = system: DMS-114
ACHN = system: ACHN
SNB-19 = system: SNB-19
DLD-1 = system: DLD-1
OVCAR-8 = system: OVCAR-8
Malme-3M = system: Malme-3M
HT-29 = system: HT-29
HCC 2998 = system: HCC 2998
SF-295 = system: SF-295
HOP-62 = system: HOP-62
HCT-116 = system: HCT-116
A498 = system: A498
SR = system: SR
KM-20L2 = system: KM-20L2
HOP-18 = system: HOP-18
NCI-H23 = system: NCI-H23

Structure (SMILES): COC(=O)C(=Cc1cc(OC)ccc1OC)C(=O)OC
- GI50 (OVCAR-4): 20.3 µM (inactive)
- GI50 (OVCAR-3): 21.2 µM (inactive)
- GI50 (SNB-78): 34.1 µM (inactive)
- GI50 (SF-539): 24.7 µM (inactive)
- GI50 (LOX IMVI): 18.2 µM (inactive)
- GI50 (CAKI-1): 18.9 µM (inactive)
- GI50 (M14): 15.3 µM (inactive)
- GI50 (NCI-H522): 15.1 µM (inactive)
- GI50 (SK-MEL-28): 23.6 µM (inactive)
- GI50 (DMS-273): 32.3 µM (inactive)
- GI50 (HCT-15): 25.2 µM
- GI50 (KM12): 20.6 µM (inactive)
- GI50 (RXF 393): 16 µM (inactive)
- GI50 (K562): 18 µM (inactive)
- GI50 (786-0): 23.4 µM (inactive)
- GI50 (SK-MEL-5): 19.1 µM (inactive)
- GI50 (SK-MEL-2): 22.1 µM (inactive)
- GI50 (A549): 31 µM (inactive)
- GI50 (U-251): 19.8 µM (inactive)
- GI50 (TK-10): 36.3 µM (inactive)
- GI50 (UACC-62): 20.9 µM (inactive)
- GI50 (XF498): 25.5 µM (inactive)
- GI50 (SK-OV-3): 31.5 µM (inactive)
- GI50 (IGROV-1): 25.5 µM (inactive)
- GI50 (RPMI-8226): 25.9 µM (inactive)
- GI50 (UACC-257): 14.1 µM (inactive)
- GI50 (OVCAR-5): 28.2 µM (inactive)
- GI50 (COLO 205): 18.2 µM (inactive)
- GI50 (SF-268): 34.2 µM (inactive)
- GI50 (SW-620): 23.7 µM (inactive)
- GI50 (UO-31): 23 µM (inactive)
- GI50 (SNB-75): 19.9 µM (inactive)
- GI50 (NCI-H226): 53.6 µM (inactive)
- GI50 (M19-MEL): 22 µM (inactive)
- GI50 (SN12C): 24.9 µM (inactive)
- GI50 (HOP-92): 19.2 µM (inactive)
- GI50 (RXF 631): 32 µM (inactive)
- GI50 (CCRF-CEM): 20 µM (inactive)
- GI50 (EKVX): 33.7 µM (inactive)
- GI50 (MOLT-4): 27.4 µM (inactive)
- GI50 (NCI-H460): 30.8 µM (inactive)
- GI50 (HL-60): 21.8 µM (inactive)
- GI50 (LXFL 529): 16.6 µM (inactive)
- GI50 (DMS-114): 20.8 µM (inactive)
- GI50 (ACHN): 17.3 µM (inactive)
- GI50 (SNB-19): 44 µM (inactive)
- GI50 (DLD-1): 29 µM (inactive)
- GI50 (OVCAR-8): 30 µM (inactive)
- GI50 (Malme-3M): 26.9 µM (inactive)
- GI50 (HT-29): 21.8 µM (inactive)
- GI50 (HCC 2998): 19.1 µM (inactive)
- GI50 (SF-295): 28.2 µM (inactive)
- GI50 (HOP-62): 27.5 µM (inactive)

Structure (SMILES): COC1CCC(OC)C(C2(C3CC(OC)CCC3OC)OC(=O)c3ccccc32)C1 (stereo not given)
- GI50 (OVCAR-4): 70.8 µM (inactive)
- GI50 (OVCAR-3): 75.9 µM (inactive)
- GI50 (SNB-78): > 100 µM (inactive)
- GI50 (SF-539): > 100 µM (inactive)
- GI50 (HCT-116): > 100 µM (inactive)
- GI50 (CAKI-1): > 100 µM (inactive)
- GI50 (M14): 64.7 µM (inactive)
- GI50 (A498): > 100 µM (inactive)
- GI50 (NCI-H522): 6.85 µM (inactive)
- GI50 (SR): 9.16 µM (inactive)
- GI50 (DMS-273): 22.6 µM (inactive)
- GI50 (HCT-15): 37 µM
- GI50 (KM12): 38.9 µM (inactive)
- GI50 (RXF 393): > 100 µM (inactive)
- GI50 (K562): 22.2 µM (inactive)
- GI50 (786-0): > 100 µM (inactive)
- GI50 (SK-MEL-5): 26.4 µM (inactive)
- GI50 (SK-MEL-2): 93.8 µM (inactive)
- GI50 (KM-20L2): 44.2 µM (inactive)
- GI50 (A549): > 100 µM (inactive)
- GI50 (U-251): 93.8 µM (inactive)
- GI50 (TK-10): > 100 µM (inactive)
- GI50 (UACC-62): 94.8 µM (inactive)
- GI50 (XF498): 76.4 µM (inactive)
- GI50 (SK-OV-3): > 100 µM (inactive)
- GI50 (IGROV-1): 68.4 µM (inactive)
- GI50 (RPMI-8226): 19.8 µM (inactive)
- GI50 (UACC-257): > 100 µM (inactive)
- GI50 (OVCAR-5): > 100 µM (inactive)
- GI50 (COLO 205): 28.8 µM (inactive)
- GI50 (SF-268): > 100 µM (inactive)
- GI50 (SW-620): 59.2 µM (inactive)
- GI50 (UO-31): 70.3 µM (inactive)
- GI50 (SNB-75): > 100 µM (inactive)
- GI50 (NCI-H226): 86.7 µM (inactive)
- GI50 (SN12C): > 100 µM (inactive)
- GI50 (HOP-92): > 100 µM (inactive)
- GI50 (RXF 631): > 100 µM (inactive)
- GI50 (HOP-18): > 100 µM (inactive)
- GI50 (NCI-H23): 80.7 µM (inactive)
- GI50 (EKVX): 60.8 µM (inactive)
- GI50 (MOLT-4): 14.6 µM (inactive)
- GI50 (NCI-H460): 86.3 µM (inactive)
- GI50 (HL-60): 13.7 µM (inactive)
- GI50 (DMS-114): 55.7 µM (inactive)
- GI50 (ACHN): > 100 µM (inactive)
- GI50 (SNB-19): > 100 µM (inactive)
- GI50 (DLD-1): > 100 µM (inactive)
- GI50 (OVCAR-8): > 100 µM (inactive)
- GI50 (Malme-3M): > 100 µM (inactive)
- GI50 (HT-29): 33.8 µM (inactive)
- GI50 (HCC 2998): 66.4 µM (inactive)
- GI50 (SF-295): 82.2 µM (inactive)
- GI50 (HOP-62): > 100 µM (inactive)

Structure (SMILES): CO/C=C(\Br)c1ccc2c(c1)OCO2
- GI50 (OVCAR-4): > 100 µM (inactive)
- GI50 (OVCAR-3): > 100 µM (inactive)
- GI50 (SNB-78): > 100 µM (inactive)
- GI50 (SF-539): > 100 µM (inactive)
- GI50 (HCT-116): > 100 µM (inactive)
- GI50 (CAKI-1): > 100 µM (inactive)
- GI50 (M14): > 100 µM (inactive)
- GI50 (A498): > 100 µM (inactive)
- GI50 (NCI-H522): > 100 µM (inactive)
- GI50 (SR): > 100 µM (inactive)
- GI50 (SK-MEL-28): > 100 µM (inactive)
- GI50 (DMS-273): > 100 µM (inactive)
- GI50 (KM12): > 100 µM (inactive)
- GI50 (RXF 393): > 100 µM (inactive)
- GI50 (K562): > 100 µM (inactive)
- GI50 (786-0): > 100 µM (inactive)
- GI50 (SK-MEL-2): > 100 µM (inactive)
- GI50 (A549): > 100 µM (inactive)
- GI50 (U-251): > 100 µM (inactive)
- GI50 (TK-10): > 100 µM (inactive)
- GI50 (UACC-62): 64.9 µM (inactive)
- GI50 (XF498): > 100 µM (inactive)
- GI50 (SK-OV-3): > 100 µM (inactive)
- GI50 (IGROV-1): > 100 µM (inactive)
- GI50 (UACC-257): > 100 µM (inactive)
- GI50 (OVCAR-5): > 100 µM (inactive)
- GI50 (SF-268): > 100 µM (inactive)
- GI50 (SW-620): > 100 µM (inactive)
- GI50 (UO-31): > 100 µM (inactive)
- GI50 (SNB-75): > 100 µM (inactive)
- GI50 (NCI-H226): > 100 µM (inactive)
- GI50 (M19-MEL): > 100 µM (inactive)
- GI50 (SN12C): > 100 µM (inactive)
- GI50 (HOP-92): > 100 µM (inactive)
- GI50 (RXF 631): > 100 µM (inactive)
- GI50 (CCRF-CEM): > 100 µM (inactive)
- GI50 (NCI-H23): > 100 µM (inactive)
- GI50 (EKVX): > 100 µM (inactive)
- GI50 (MOLT-4): 73.5 µM (inactive)
- GI50 (HL-60): > 100 µM (inactive)
- GI50 (LXFL 529): > 100 µM (inactive)
- GI50 (DMS-114): > 100 µM (inactive)
- GI50 (ACHN): > 100 µM (inactive)
- GI50 (SNB-19): > 100 µM (inactive)
- GI50 (OVCAR-8): > 100 µM (inactive)
- GI50 (Malme-3M): > 100 µM (inactive)
- GI50 (SF-295): > 100 µM (inactive)
- GI50 (HOP-62): > 100 µM (inactive)
